# Values of other authors in article PMC9001717, “Tyrosine 121 moves revealing a ligandable pocket that couples catalysis to ATP-binding in serine racemase” (Communications Biology, 2022).
# B1: GRIP: glutamate receptor-interacting protein (protein, UniProt Q9Y3R0 1-1128, looked up)
# Glutamate …: MIAVSFKCRCQILRRLTKDESPYTKSASQTKPPDGALAVRRQSIPEEFKGSTVVELMKKEGTTLGLTVSGGIDKDGKPRVSNLRQGGIAARSDQLDVGDYIKAVNGINLAKFRHDEIISLLKNVGERVVLEVEYELPPVSVQGSSVIFRTVEVTLHKEGNTFGFVIRGGAHDDRNKSRPVVITCVRPGGPADREGTIKPGDRLLSVDGIRLLGTTHAEAMSILKQCGQEAALLIEYDVSVMDSVATASGPLLVEVAKTPGASLGVALTTSMCCNKQVIVIDKIKSASIADRCGALHVGDHILSIDGTSMEYCTLAEATQFLANTTDQVKLEILPHHQTRLALKGPDHVKIQRSDRQLTWDSWASNHSSLHTNHHYNTYHPDHCRVPALTFPKAPPPNSPPALVSSSFSPTSMSAYSLSSLNMGTLPRSLYSTSPRGTMMRRRLKKKDFKSSLSLASSTVGLAGQVVHTETTEVVLTADPVTGFGIQLQGSVFATETLSSPPLISYIEADSPAERCGVLQIGDRVMAINGIPTEDSTFEEASQLLRDSSITSKVTLEIEFDVAESVIPSSGTFHVKLPKKHNVELGITISSPSSRKPGDPLVISDIKKGSVAHRTGTLELGDKLLAIDNIRLDNCSMEDAVQILQQCEDLVKLKIRKDEDNSDEQESSGAIIYTVELKRYGGPLGITISGTEEPFDPIIISSLTKGGLAERTGAIHIGDRILAINSSSLKGKPLSEAIHLLQMAGETVTLKIKKQTDAQSASSPKKFPISSHLSDLGDVEEDSSPAQKPGKLSDMYPSTVPSVDSAVDSWDGSAIDTSYGTQGTSFQASGYNFNTYDWRSPKQRGSLSPVTKPRSQTYPDVGLSYEDWDRSTASGFAGAADSAETEQEENFWSQALEDLETCGQSGILRELEEKADRRVSLRNMTLLATIMSGSTMSLNHEAPTPRSQLGRQASFQERSSSRPHYSQTTRSNTLPSDVGRKSVTLRKMKQEIKEIMSPTPVELHKVTLYKDSDMEDFGFSVADGLLEKGVYVKNIRPAGPGDLGGLKPYDRLLQVNHVRTRDFDCCLVVPLIAESGNKLDLVISRNPLASQKSIDQQSLPGDWSEQNSAFFQQPSHGGNLETREPTNTL
# B2: Golga3: Golgin subfamily A member 3 (protein, UniProt Q08378 1-1498, looked up)
# Golgin subfamily A member 3: MDGASAEQDGLQEDRSHSGPSSLPEAPLKPPGPLVPPDQQDKVQCAEVNRASTEGESPDGPGQGGLCQNGPTPPFPDPPSSLDPTTSPVGPDASPGVAGFHDNLRKSQGTSAEGSVRKEALQSLRLSLPMQETQLCSTDSPLPLEKEEQVRLQARKWLEEQLKQYRVKRQQERSSQPATKTRLFSTLDPELMLNPENLPRASTLAMTKEYSFLRTSVPRGPKVGSLGLPAHPREKKTSKSSKIRSLADYRTEDSNAGNSGGNVPAPDSTKGSLKQNRSSAASVVSEISLSPDTDDRLENTSLAGDSVSEVDGNDSDSSSYSSASTRGTYGILSKTVGTQDTPYMVNGQEIPADTLGQFPSIKDVLQAAAAEHQDQGQEVNGEVRSRRDSICSSVSLESSAAETQEEMLQVLKEKMRLEGQLEALSLEASQALKEKAELQAQLAALSTKLQAQVECSHSSQQRQDSLSSEVDTLKQSCWDLERAMTDLQNMLEAKNASLASSNNDLQVAEEQYQRLMAKVEDMQRSMLSKDNTVHDLRQQMTALQSQLQQVQLERTTLTSKLKASQAEISSLQSVRQWYQQQLALAQEARVRLQGEMAHIQVGQMTQAGLLEHLKLENVSLSQQLTETQHRSMKEKGRIAAQLQGIEADMLDQEAAFMQIQEAKTMVEEDLQRRLEEFEGERERLQRMADSAASLEQQLEQVKLTLLQRDQQLEALQQEHLDLMKQLTLTQEALQSREQSLDALQTHYDELQARLGELQGEAASREDTICLLQNEKIILEAALQAAKSGKEELDRGARRLEEGTEETSETLEKLREELAIKSGQVEHLQQETAALKKQMQKIKEQFLQQKVMVEAYRRDATSKDQLISELKATRKRLDSELKELRQELMQVHGEKRTAEAELSRLHREVAQVRQHMADLEGHLQSAQKERDEMETHLQSLQFDKEQMVAVTEANEALKKQIEELQQEARKAITEQKQKMRRLGSDLTSAQKEMKTKHKAYENAVGILSRRLQEALAAKEAADAELGQLRAQGGSSDSSLALHERIQALEAELQAVSHSKTLLEKELQEVIALTSQELEESREKVLELEDELQESRGFRKKIKRLEESNKKLALELEHEKGKLTGLGQSNAALREHNSILETALAKREADLVQLNLQVQAVLQRKEEEDRQMKHLVQALQASLEKEKEKVNSLKEQVAAAKVEAGHNRRHFKAASLELSEVKKELQAKEHLVQKLQAEADDLQIREGKHSQEIAQFQAELAEARAQLQLLQKQLDEQLSKQPVGNQEMENLKWEVDQKEREIQSLKQQLDLTEQQGRKELEGLQQLLQNVKSELEMAQEDLSMTQKDKFMLQAKVSELKNNMKTLLQQNQQLKLDLRRGAAKTRKEPKGEASSSNPATPIKIPDCPVPASLLEELLRPPPAVSKEPLKNLNSCLQQLKQEMDSLQRQMEEHALTVHESLSSWTPLEPATASPVPPGGHAGPRGDPQRHSQSRASKEGPGE
# B3: PICK1: protein interacting with C-kinase (protein, UniProt Q9NRD5 1-415, looked up)
# PRKCA-binding protein: MFADLDYDIEEDKLGIPTVPGKVTLQKDAQNLIGISIGGGAQYCPCLYIVQVFDNTPAALDGTVAAGDEITGVNGRSIKGKTKVEVAKMIQEVKGEVTIHYNKLQADPKQGMSLDIVLKKVKHRLVENMSSGTADALGLSRAILCNDGLVKRLEELERTAELYKGMTEHTKNLLRAFYELSQTHRAFGDVFSVIGVREPQPAASEAFVKFADAHRSIEKFGIRLLKTIKPMLTDLNTYLNKAIPDTRLTIKKYLDVKFEYLSYCLKVKEMDDEEYSCIALGEPLYRVSTGNYEYRLILRCRQEARARFSQMRKDVLEKMELLDQKHVQDIVFQLQRLVSTMSKYYNDCYAVLRDADVFPIEVDLAHTTLAYGLNQEEFTDGEEEEEEEDTAAGEPSRDTRGAAGPLDKGGSWCDS
# B4: DISC1: Disrupted-In-Schizophrenia-1 (protein, UniProt Q9NRI5 1-854, looked up)
# Disrupted in schizophrenia 1 …: MPGGGPQGAPAAAGGGGVSHRAGSRDCLPPAACFRRRRLARRPGYMRSSTGPGIGFLSPAVGTLFRFPGGVSGEESHHSESRARQCGLDSRGLLVRSPVSKSAAAPTVTSVRGTSAHFGIQLRGGTRLPDRLSWPCGPGSAGWQQEFAAMDSSETLDASWEAACSDGARRVRAAGSLPSAELSSNSCSPGCGPEVPPTPPGSHSAFTSSFSFIRLSLGSAGERGEAEGCPPSREAESHCQSPQEMGAKAASLDGPHEDPRCLSRPFSLLATRVSADLAQAARNSSRPERDMHSLPDMDPGSSSSLDPSLAGCGGDGSSGSGDAHSWDTLLRKWEPVLRDCLLRNRRQMEVISLRLKLQKLQEDAVENDDYDKAETLQQRLEDLEQEKISLHFQLPSRQPALSSFLGHLAAQVQAALRRGATQQASGDDTHTPLRMEPRLLEPTAQDSLHVSITRRDWLLQEKQQLQKEIEALQARMFVLEAKDQQLRREIEEQEQQLQWQGCDLTPLVGQLSLGQLQEVSKALQDTLASAGQIPFHAEPPETIRSLQERIKSLNLSLKEITTKVCMSEKFCSTLRKKVNDIETQLPALLEAKMHAISGNHFWTAKDLTEEIRSLTSEREGLEGLLSKLLVLSSRNVKKLGSVKEDYNRLRREVEHQETAYETSVKENTMKYMETLKNKLCSCKCPLLGKVWEADLEACRLLIQSLQLQEARGSLSVEDERQMDDLEGAAPPIPPRLHSEDKRKTPLKVLEEWKTHLIPSLHCAGGEQKEESYILSAELGEKCEDIGKKLLYLEDQLHTAIHSHDEDLIQSLRRELQMVKETLQAMILQLQPAKEAGEREAAASCMTAGVHEAQA
# Test system: SR
# Set-up: method as in supplementary refs 2, 11-32
# Conditions: literature summary; ref supplementary refs 2, 11-32; cited from earlier work
row,Molecule,Inhibition mode
1,"O=C(O)C1CC1C(=O)O (stereo not drawn) [1,2-cyclopropanedicarboxylic acid]",Competitive
2,"O=C(O)C(CO)(CO)C(=O)O [2,2-bis(hydroxymethyl)malonate]",Competitive
3,"O=C(O)C(Cl)(Cl)C(=O)O [2,2-dichloromalonate]",Competitive
4,NC(C(=O)O)C(=O)O [2-aminomalonate],Competitive
5,O=C(O)C(F)C(=O)O [2-fluoromalonate],Competitive
6,O=C(O)C(O)C(=O)O [2-hydroxymalonate],Competitive
7,O=C(O)/C(O)=C(\O)C(=O)O [Dihydroxyfumaric],Competitive
8,NC(CCS(=O)(=O)O)C(=O)O (stereo not drawn) [Homocysteic acid],Competitive
9,NC(=O)C[C@H](N)C(=O)O [L-asparagine],Competitive
10,N[C@@H](CC(=O)O)C(=O)O [L-aspartate],Competitive
11,N[C@@H](CSS(=O)(=O)O)C(=O)O [L-cysteine-S-sulfate],Competitive
12,O=C(O)C[C@H](O)C(=O)O [L-malic],Competitive
13,N[C@@H](COS(=O)(=O)O)C(=O)O [L-serine-O-sulfate],Competitive
14,O=C(O)/C=C\C(=O)O [Maleic],Competitive
15,O=C(O)CC(=O)C(=O)O [Oxaloacetic acid],Product inhibition
16,O=C(O)CCC(=O)O [Succinic],Competitive
17,O=C(O)C(O)C(O)C(=O)O (stereo not drawn) [Tartaric],Competitive
18,NC(CO)(CO)C(=O)O [α-(hydroxymethyl)serine],Substrate-product inhibition
19,N[C@@H](CCl)C(=O)O [β-chloro-L-alanine],Competitive
20,"phosphatidylinositol 4,5-bisphosphate [PIP2]",Inhibition (noncompetitive)
21,B1,Activation; binds to SR
22,B2,Increases SR levels
23,B3,Inhibition; binds to SR
24,B4,Stabilises SR
